According to patent US4450269A, “Mono-5-substituted-3-chloro-4H-1,2,6-thiadiazin-4-one antifungal agents” (FMC Corporation, priority 1980, dated 1984):
Where two headings read alike, the source gives them in different places.

Tests used:
Erysiphe polygoni [1] = experiment: whole plant or invertebrate; details: foliar, 24 h, read-out: Percent Disease Control, curative, bean powdery mildew
Pyricularia oryzae [2] = experiment: whole plant or invertebrate; format: in vivo; details: Pyricularia oryzae, foliar, 24 h, read-out: Percent Disease Control, curative, rice blast, 150 ppm, 24 hours after inoculation
Phytophthora infestans [3] = format: cell-based; details: PI, 48 hours
Rhizoctonia solani = experiment: Mycelial growth test; format: cell-based; details: Rhizoctonia solani, 72 h, RS, read-out: Percent Fungus Growth Inhibition
Source text: | RS = Rhizoctonia solani

Cladosporium cucumerinum [4] = experiment: Mycelial growth test; format: cell-based; details: Cladosporium cucumerinum, CC, read-out: Percent Fungus Growth Inhibition; for inhibition at 5 ppm / inhibition at 10 ppm / inhibition at 40 ppm: 72 h; for inhibition at 20 ppm: CC20, 72 h
Source text: |CC = Cladosporium cucumerinum

Helminthosporium oryzae = experiment: Mycelial growth test; details: Bipolaris oryzae, 72 h, read-out: Percent Fungus Growth Inhibition
Pythium ultimum = experiment: Mycelial growth test; format: cell-based; details: Globisporangium ultimum, 72 h, PU, read-out: Percent Fungus Growth Inhibition
Alternaria solani [5] = experiment: Mycelial growth test; format: cell-based; details: Alternaria solani, 72 h, AS, read-out: Percent Fungus Growth Inhibition
Sclerotinia fructicola = experiment: Mycelial growth test; format: cell-based; details: Sclerotinia, 72 h, SF, read-out: Percent Fungus Growth Inhibition
Source text: | SF = Sclerotinia fructicola

Fusarium solani = experiment: Mycelial growth test; format: cell-based; details: Fusarium solani, 72 h; for inhibition at 5 ppm / inhibition at 10 ppm / inhibition at 20 ppm: PS, 72 hours, read-out: Percent Fungus Growth Inhibition; for inhibition at 40 ppm: read-out: Percent Fungus Growth Inhibition, PS, 40 ppm, 72 hours
Uromyces phaseoli [6] = experiment: whole plant or invertebrate; details: foliar, 24 h, read-out: Percent Disease Control, curative, bean rust
Pyricularia oryzae [7] = format: cell-based; details: PO, 48 hours
Pyricularia oryzae [8] = experiment: microbe, parasite or virus in culture; format: cell-based; details: Pyricularia oryzae, 72 h; for inhibition at 5 ppm: read-out: Percent Fungus Growth Inhibition, PO, 5 ppm, 72 hours; for inhibition at 10 ppm: read-out: Percent Fungus Growth Inhibition, PO, 10 ppm, 72 hours; for inhibition at 20 ppm: read-out: Percent Fungus Growth Inhibition, PO, 20 ppm, 72 hours; for inhibition at 40 ppm: read-out: Percent Fungus Growth Inhibition, PO, 40 ppm, 72 hours
Phytophthora infestans [9] = experiment: whole plant or invertebrate; format: in vivo; details: Phytophthora infestans, in Solanum lycopersicum, foliar, read-out: Percent Disease Control, foliar, tomato late blight, 150 ppm, protective
Botrytis cinerea = experiment: Spore germination test; format: cell-based; details: BC, 48 hours
Method: (§1) The test chemical was dissolved or suspended in acetone in an amount such that 0.8 ml of the resulting suspension or solution, mixed with 40 ml water agar produced a water agar solution containing 40, 10, 2.5 and 1 ppm of test chemical. The resulting agar solution, at 50° C., was then divided equally between two sterile petri dishes, each having four separated quadrants, and allowed to solidify. […] quadrants of each dish were flooded with 0.1 ml of a spore suspension in sterile water. Spores of two pathogens, Erysiphe polygoni and Uromyes phaseoli, from infected plant leaves, were brushed on the remaining two quadrants. The tests were then incubated 48 hours, at 24° C.
(§2) Readings were then taken and the percentage of germinated spores calculated. From this percentage, a spore germination rating was assigned as follows: […]

Uromyces phaseoli [10] = experiment: Spore germination test; format: cell-based; details: UP, 48 hours
Method: as §1, §2

Alternaria solani [11] = experiment: Spore germination test; format: cell-based; details: AS, 48 hours
Method: as §1, §2

Erysiphe polygoni [12] = experiment: Spore germination test; format: cell-based; details: EP, 48 hours
Method: as §1, §2

Uromyces phaseoli [13] = experiment: whole plant or invertebrate; details: foliar, read-out: Percent Disease Control, foliar, bean rust
Cladosporium cucumerinum [14] = experiment: Spore germination test; format: cell-based; details: CC, 48 hours
Method: CC = Cladosporium cucumerinum
as §1, §2

Venturia inaequalis = experiment: Spore germination test; format: cell-based; details: VI, 48 hours
Method: VI = Venturia inaequalis
as §1, §2

SMILES: O=C(Nc1ccccc1)Oc1ccc(Oc2nsnc(Cl)c2=O)cc1 [Compound 37, 3-chloro-5-[4-(phenylaminocarbonyloxy)phenoxy]-4H-1,2,6,-thiadiazin-4-one]
- pest or weed control at 150 ppm (Erysiphe polygoni [1]): 0%
- pest or weed control at 150 ppm (Pyricularia oryzae [2]): 0%
- Spore Germination Rating (Phytophthora infestans [3]; 1.0 ppm): 4 (80-100)
- Spore Germination Rating (Phytophthora infestans [3]; 2.5 ppm): 4 (80-100)
- Spore Germination Rating (Phytophthora infestans [3]; 10 ppm): 4 (80-100)
- Spore Germination Rating (Phytophthora infestans [3]; 40 ppm): 4 (80-100)
- inhibition at 5 ppm (Rhizoctonia solani): 11%
- inhibition at 10 ppm (Rhizoctonia solani): 42%
- inhibition at 20 ppm (Rhizoctonia solani): 31%
- inhibition at 40 ppm (Rhizoctonia solani): 51%
- inhibition at 5 ppm (Cladosporium cucumerinum [4]): 23%
- inhibition at 10 ppm (Cladosporium cucumerinum [4]): 29%
- inhibition at 40 ppm (Cladosporium cucumerinum [4]): 52%
- inhibition at 20 ppm (Cladosporium cucumerinum [4]): 35%
- inhibition at 5 ppm (Helminthosporium oryzae): 27%
- inhibition at 10 ppm (Helminthosporium oryzae): 13%
- inhibition at 20 ppm (Helminthosporium oryzae): 60%
- inhibition at 40 ppm (Helminthosporium oryzae): 47%
- inhibition at 5 ppm (Pythium ultimum): 100%
- inhibition at 10 ppm (Pythium ultimum): 0%
- inhibition at 20 ppm (Pythium ultimum): 20%
- inhibition at 40 ppm (Pythium ultimum): 100%
- inhibition at 5 ppm (Alternaria solani [5]): 46%
- inhibition at 10 ppm (Alternaria solani [5]): 50%
- inhibition at 20 ppm (Alternaria solani [5]): 50%
- inhibition at 40 ppm (Alternaria solani [5]): 54%
- inhibition at 5 ppm (Sclerotinia fructicola): 30%
- inhibition at 10 ppm (Sclerotinia fructicola): 59%
- inhibition at 20 ppm (Sclerotinia fructicola): 56%
- inhibition at 40 ppm (Sclerotinia fructicola): 59%
- inhibition at 5 ppm (Fusarium solani): 26%
- inhibition at 10 ppm (Fusarium solani): 16%
- inhibition at 20 ppm (Fusarium solani): 26%
- inhibition at 40 ppm (Fusarium solani): 42%
- pest or weed control at 150 ppm (Uromyces phaseoli [6]): 0%
- Spore Germination Rating (Pyricularia oryzae [7]; 1.0 ppm): 4 (80-100)
- Spore Germination Rating (Pyricularia oryzae [7]; 2.5 ppm): 3 (60-80)
- Spore Germination Rating (Pyricularia oryzae [7]; 10 ppm): 0 (0-10)
- Spore Germination Rating (Pyricularia oryzae [7]; 40 ppm): 2 (40-60)
- inhibition at 5 ppm (Pyricularia oryzae [8]): 44%
- inhibition at 10 ppm (Pyricularia oryzae [8]): 44%
- inhibition at 20 ppm (Pyricularia oryzae [8]): 61%
- inhibition at 40 ppm (Pyricularia oryzae [8]): 61%
- pest or weed control at 150 ppm (Phytophthora infestans [9]): 0%
- Spore Germination Rating (Botrytis cinerea; 1.0 ppm): 4 (80-100)
- Spore Germination Rating (Botrytis cinerea; 2.5 ppm): 4 (80-100)
- Spore Germination Rating (Botrytis cinerea; 10 ppm): 4 (80-100)
- Spore Germination Rating (Botrytis cinerea; 40 ppm): 4 (80-100)
- Spore Germination Rating (Uromyces phaseoli [10]; 1.0 ppm): 4 (80-100)
- Spore Germination Rating (Uromyces phaseoli [10]; 2.5 ppm): 2 (40-60)
- Spore Germination Rating (Uromyces phaseoli [10]; 10 ppm): 1 (10-40)
- Spore Germination Rating (Uromyces phaseoli [10]; 40 ppm): 1 (10-40)
- Spore Germination Rating (Alternaria solani [11]; 1.0 ppm): 4 (80-100)
- Spore Germination Rating (Alternaria solani [11]; 2.5 ppm): 4 (80-100)
- Spore Germination Rating (Alternaria solani [11]; 10 ppm): 4 (80-100)
- Spore Germination Rating (Alternaria solani [11]; 40 ppm): 3 (60-80)
- Spore Germination Rating (Erysiphe polygoni [12]; 1.0 ppm): 4 (80-100)
- Spore Germination Rating (Erysiphe polygoni [12]; 2.5 ppm): 4 (80-100)
- Spore Germination Rating (Erysiphe polygoni [12]; 10 ppm): 4 (80-100)
- Spore Germination Rating (Erysiphe polygoni [12]; 40 ppm): 3 (60-80)
- pest or weed control at 150 ppm (Uromyces phaseoli [13]): 100%
- Spore Germination Rating (Cladosporium cucumerinum [14]; 1.0 ppm): 0 (0-10)
- Spore Germination Rating (Cladosporium cucumerinum [14]; 2.5 ppm): 1 (10-40)
- Spore Germination Rating (Cladosporium cucumerinum [14]; 10 ppm): 0 (0-10)
- Spore Germination Rating (Cladosporium cucumerinum [14]; 40 ppm): 0 (0-10)

SMILES: O=C1C2CC=CCC2C(=O)N1SC(Cl)(Cl)Cl (stereo not shown) [Captan, reference compound]
- inhibition at 5 ppm (Rhizoctonia solani): 0%
- inhibition at 10 ppm (Rhizoctonia solani): 0%
- inhibition at 20 ppm (Rhizoctonia solani): 0%
- inhibition at 40 ppm (Rhizoctonia solani): 0%
- inhibition at 5 ppm (Helminthosporium oryzae): 18%
- inhibition at 10 ppm (Helminthosporium oryzae): 46%
- inhibition at 20 ppm (Helminthosporium oryzae): 62%
- inhibition at 40 ppm (Helminthosporium oryzae): 65%
- inhibition at 5 ppm (Pythium ultimum): 0%
- inhibition at 10 ppm (Pythium ultimum): 0%
- inhibition at 20 ppm (Pythium ultimum): 0%
- inhibition at 40 ppm (Pythium ultimum): 0%
- inhibition at 5 ppm (Fusarium solani): 19%
- inhibition at 10 ppm (Fusarium solani): 33%
- inhibition at 20 ppm (Fusarium solani): 48%
- inhibition at 40 ppm (Fusarium solani): 44%

SMILES: CCCCNC(=O)n1c(NC(=O)OC)nc2ccccc21 [Benomyl, reference compound]
- Spore Germination Rating (Phytophthora infestans [3]; 1.0 ppm): 2 (40-60)
- Spore Germination Rating (Phytophthora infestans [3]; 2.5 ppm): 2 (40-60)
- Spore Germination Rating (Phytophthora infestans [3]; 10 ppm): 0 (0-10)
- Spore Germination Rating (Phytophthora infestans [3]; 40 ppm): 1 (10-40)
- Spore Germination Rating (Pyricularia oryzae [7]; 1.0 ppm): 4 (80-100)
- Spore Germination Rating (Pyricularia oryzae [7]; 2.5 ppm): 4 (80-100)
- Spore Germination Rating (Pyricularia oryzae [7]; 10 ppm): 3 (60-80)
- Spore Germination Rating (Pyricularia oryzae [7]; 40 ppm): 0 (0-10)
- Spore Germination Rating (Botrytis cinerea; 1.0 ppm): 4 (80-100)
- Spore Germination Rating (Botrytis cinerea; 2.5 ppm): 4 (80-100)
- Spore Germination Rating (Botrytis cinerea; 10 ppm): 4 (80-100)
- Spore Germination Rating (Botrytis cinerea; 40 ppm): 4 (80-100)
- Spore Germination Rating (Uromyces phaseoli [10]; 1.0 ppm): 4 (80-100)
- Spore Germination Rating (Uromyces phaseoli [10]; 2.5 ppm): 1 (10-40)
- Spore Germination Rating (Uromyces phaseoli [10]; 10 ppm): 1 (10-40)
- Spore Germination Rating (Uromyces phaseoli [10]; 40 ppm): 0 (0-10)
- Spore Germination Rating (Alternaria solani [11]; 1.0 ppm): 4 (80-100)
- Spore Germination Rating (Alternaria solani [11]; 2.5 ppm): 4 (80-100)
- Spore Germination Rating (Alternaria solani [11]; 10 ppm): 4 (80-100)
- Spore Germination Rating (Alternaria solani [11]; 40 ppm): 4 (80-100)
- Spore Germination Rating (Erysiphe polygoni [12]; 1.0 ppm): 2 (40-60)
- Spore Germination Rating (Erysiphe polygoni [12]; 2.5 ppm): 2 (40-60)
- Spore Germination Rating (Erysiphe polygoni [12]; 10 ppm): 0 (0-10)
- Spore Germination Rating (Erysiphe polygoni [12]; 40 ppm): 0 (0-10)
- Spore Germination Rating (Cladosporium cucumerinum [14]; 1.0 ppm): 4 (80-100)
- Spore Germination Rating (Cladosporium cucumerinum [14]; 2.5 ppm): 4 (80-100)
- Spore Germination Rating (Cladosporium cucumerinum [14]; 10 ppm): 3 (60-80)
- Spore Germination Rating (Cladosporium cucumerinum [14]; 40 ppm): 0 (0-10)
- Spore Germination Rating (Venturia inaequalis; 1.0 ppm): 3 (60-80)
- Spore Germination Rating (Venturia inaequalis; 2.5 ppm): 3 (60-80)
- Spore Germination Rating (Venturia inaequalis; 10 ppm): 0 (0-10)
- Spore Germination Rating (Venturia inaequalis; 40 ppm): 0 (0-10)

SMILES: N#Cc1c(Cl)c(Cl)c(Cl)c(C#N)c1Cl [Chlorothalonil, reference compound]
- inhibition at 5 ppm (Rhizoctonia solani): 31%
- inhibition at 10 ppm (Rhizoctonia solani): 40%
- inhibition at 20 ppm (Rhizoctonia solani): 53%
- inhibition at 40 ppm (Rhizoctonia solani): 73%
- inhibition at 5 ppm (Cladosporium cucumerinum [4]): 63%
- inhibition at 10 ppm (Cladosporium cucumerinum [4]): 63%
- inhibition at 40 ppm (Cladosporium cucumerinum [4]): 96%
- inhibition at 20 ppm (Cladosporium cucumerinum [4]): 71%
- inhibition at 5 ppm (Helminthosporium oryzae): 50%
- inhibition at 10 ppm (Helminthosporium oryzae): 59%
- inhibition at 20 ppm (Helminthosporium oryzae): 73%
- inhibition at 40 ppm (Helminthosporium oryzae): 95%
- inhibition at 5 ppm (Pythium ultimum): 0%
- inhibition at 10 ppm (Pythium ultimum): 31%
- inhibition at 20 ppm (Pythium ultimum): 100%
- inhibition at 40 ppm (Pythium ultimum): 100%
- inhibition at 5 ppm (Alternaria solani [5]): 44%
- inhibition at 10 ppm (Alternaria solani [5]): 50%
- inhibition at 20 ppm (Alternaria solani [5]): 38%
- inhibition at 40 ppm (Alternaria solani [5]): 75%
- inhibition at 5 ppm (Sclerotinia fructicola): 67%
- inhibition at 10 ppm (Sclerotinia fructicola): 70%
- inhibition at 20 ppm (Sclerotinia fructicola): 76%
- inhibition at 40 ppm (Sclerotinia fructicola): 82%
- inhibition at 5 ppm (Fusarium solani): 41%
- inhibition at 10 ppm (Fusarium solani): 41%
- inhibition at 20 ppm (Fusarium solani): 76%
- inhibition at 40 ppm (Fusarium solani): 88%
- inhibition at 5 ppm (Pyricularia oryzae [8]): 26%
- inhibition at 10 ppm (Pyricularia oryzae [8]): 15%
- inhibition at 20 ppm (Pyricularia oryzae [8]): 41%
- inhibition at 40 ppm (Pyricularia oryzae [8]): 48%
